Results taken from patent publication US11053204B2, “Pyrimidinyloxy benzene derivatives as herbicides” (FMC Corporation, priority 2015, dated 2021).

Experiments:
Type in all cases: in vivo
[1] = test system: foxtail, giant (giant foxtail, Setaria faberii); test: Test C postemergence, plant response rating; conditions: for Foxtail, Giant plant response rating: scale 0 to 100 (0 no effect, 100 complete control)
How it was run: (§1)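 Greenhouse plants rated visually against untreated controls 13–15 d after treatment, scale 0 = no effect to 100 = complete control. Postemergence sprays went onto potted plants 2–18 cm tall (1–4 leaves); preemergence sprays onto soil freshly sown in loam–sand or silt loam, chemicals formulated in non-phytotoxic solvent with surfactant.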

soybean (Glycine max) [2] = test: Test C postemergence, plant response rating; conditions: for Soybean plant response rating: scale 0 to 100 (0 no effect, 100 complete control)
How it was run: as §1

[3] = test system: waterhemp (common waterhemp, Amaranthus rudis); test: Test C postemergence, plant response rating
How it was run: as §1

corn (Zea mays) [4] = test: Test C postemergence, plant response rating; conditions: for Corn plant response rating: scale 0 to 100 (0 no effect, 100 complete control)
How it was run: as §1

[5] = test system: oilseed rape (Brassica napus); test: Test C postemergence, plant response rating; conditions: for Oilseed Rape plant response rating: scale 0 to 100 (0 no effect, 100 complete control)
How it was run: as §1

[6] = test system: crabgrass, large (large crabgrass, Digitaria sanguinalis); test: Test C postemergence, plant response rating; conditions: for Crabgrass, Large plant response rating: scale 0 to 100 (0 no effect, 100 complete control)
How it was run: as §1

[7] = test system: galium (catchweed bedstraw, Galium aparine); test: Test C postemergence, plant response rating; conditions: for Galium plant response rating: scale 0 to 100 (0 no effect, 100 complete control)
How it was run: as §1

kochia (Kochia scoparia) = test: Test C postemergence, plant response rating; conditions: for Kochia plant response rating: scale 0 to 100 (0 no effect, 100 complete control)
How it was run: as §1

[8] = test system: foxtail, giant (giant foxtail, Setaria faberii); test: Test C preemergence, plant response rating; conditions: Preemergence
How it was run: as §1

soybean (Glycine max) [9] = test: Test C preemergence, plant response rating; conditions: Preemergence
How it was run: as §1

[10] = test system: waterhemp (common waterhemp, Amaranthus rudis); test: Test C preemergence, plant response rating; conditions: Preemergence
How it was run: as §1

[11] = test system: ryegrass, Italian (Italian ryegrass, Lolium multiflorum); test: Test C preemergence, plant response rating; conditions: Preemergence
How it was run: as §1

corn (Zea mays) [12] = test: Test C preemergence, plant response rating; conditions: Preemergence
How it was run: as §1

[13] = test system: oilseed rape (Brassica napus); test: Test C preemergence, plant response rating; conditions: Preemergence
How it was run: as §1

[14] = test system: crabgrass, large (large crabgrass, Digitaria sanguinalis); test: Test C preemergence, plant response rating; conditions: Preemergence
How it was run: as §1

[15] = test system: blackgrass (Alopecurus myosuroides); test: Test C preemergence, plant response rating; conditions: Preemergence
How it was run: as §1

[16] = test system: wheat (winter wheat, Triticum aestivum); test: Test C preemergence, plant response rating; conditions: Preemergence
How it was run: as §1

[17] = test system: nutsedge, yellow (yellow nutsedge, Cyperus esculentus); test: Test C preemergence, plant response rating; conditions: Preemergence
How it was run: as §1

[18] = test system: velvetleaf (Abutilon theophrasti); test: Test C preemergence, plant response rating; conditions: Preemergence
How it was run: as §1

[19] = test system: lambsquarters (Chenopodium album); test: Test C preemergence, plant response rating; conditions: Preemergence
How it was run: as §1

[20] = test system: morningglory (Ipomoea coccinea); test: Test C preemergence, plant response rating; conditions: Preemergence
How it was run: as §1

With `N#Cc1cccc(Oc2ncc(Cl)cn2)c1COCCC(F)(F)F` [Compound 80] the “Plant response rating, Foxtail, Giant” value ([1]; 16 g ai/ha, scale of 0 to 100) was 5, the “Plant response rating, Foxtail, Giant” value ([1]; 31 g ai/ha, scale 0 to 100) was 10 and the “Foxtail, Giant plant response rating” value ([1]; 62 g ai/ha) was 10. For the same molecule, the “Foxtail, Giant plant response rating” value ([1]; 125 g ai/ha) was 15, the “Plant response rating, Soybean” value (soybean (Glycine max) [2]; 16 g ai/ha, scale of 0 to 100) was 60 and the “Plant response rating, Soybean” value (soybean (Glycine max) [2]; 31 g ai/ha, scale 0 to 100) was 75. For the same molecule, the “Soybean plant response rating” value (soybean (Glycine max) [2]; 62 g ai/ha) was 90, the “Soybean plant response rating” value (soybean (Glycine max) [2]; 125 g ai/ha) was 95 and the “Plant response rating, Waterhemp” value ([3]; 16 g ai/ha, scale of 0 to 100) was 80. The “Plant response rating, Waterhemp” value ([3]; 31 g ai/ha, scale 0 to 100) was 80, the “Waterhemp plant response rating” value ([3]; 125 g ai/ha, scale 0 to 100 (0 no effect, 100 complete control)) was 90 and the “Plant response rating, Corn” value (corn (Zea mays) [4]; 16 g ai/ha, scale of 0 to 100) was 15. The “Plant response rating, Corn” value (corn (Zea mays) [4]; 31 g ai/ha, scale 0 to 100) was 10, the “Corn plant response rating” value (corn (Zea mays) [4]; 62 g ai/ha) was 15 and the “Corn plant response rating” value (corn (Zea mays) [4]; 125 g ai/ha) was 25. The “Plant response rating, Oilseed Rape” value ([5]; 16 g ai/ha, scale of 0 to 100) was 50, the “Plant response rating, Oilseed Rape” value ([5]; 31 g ai/ha, scale 0 to 100) was 60 and the “Oilseed Rape plant response rating” value ([5]; 62 g ai/ha) was 65. The “Oilseed Rape plant response rating” value ([5]; 125 g ai/ha) was 70, the “Plant response rating, Crabgrass, Large” value ([6]; 16 g ai/ha, scale of 0 to 100) was 10 and the “Plant response rating, Crabgrass, Large” value ([6]; 31 g ai/ha, scale 0 to 100) was 15. The “Crabgrass, Large plant response rating” value ([6]; 62 g ai/ha) was 10, the “Crabgrass, Large plant response rating” value ([6]; 125 g ai/ha) was 30 and the “Plant response rating, Galium” value ([7]; 16 g ai/ha, scale of 0 to 100) was 70. The “Plant response rating, Galium” value ([7]; 31 g ai/ha, scale 0 to 100) was 75, the “Galium plant response rating” value ([7]; 62 g ai/ha) was 85 and the “Galium plant response rating” value ([7]; 125 g ai/ha) was 90. For the same molecule, the “Plant response rating, Kochia” value (kochia (Kochia scoparia); 16 g ai/ha, scale of 0 to 100) was 55, the “Plant response rating, Kochia” value (kochia (Kochia scoparia); 31 g ai/ha, scale 0 to 100) was 75 and the “Kochia plant response rating” value (kochia (Kochia scoparia); 62 g ai/ha) was 80. For the same molecule, the “Kochia plant response rating” value (kochia (Kochia scoparia); 125 g ai/ha) was 80, the “Plant response rating, Foxtail, Giant” value ([8]; 62 g ai/ha, scale of 0 to 100) was 85 and the “Plant response rating, Foxtail, Giant” value ([8]; 125 g ai/ha, scale of 0 to 100) was 100. For the same molecule, the “Plant response rating, Foxtail, Giant” value ([8]; 31 g ai/ha, scale 0 to 100) was 40, the “Plant response rating, Soybean” value (soybean (Glycine max) [9]; 125 g ai/ha, scale of 0 to 100) was 85 and the “Plant response rating, Soybean” value (soybean (Glycine max) [9]; 31 g ai/ha, scale 0 to 100) was 20. For the same molecule, the “Plant response rating, Soybean” value (soybean (Glycine max) [9]; 62 g ai/ha, scale 0 to 100) was 40, the “Plant response rating, Waterhemp” value ([10]; 125 g ai/ha, scale of 0 to 100) was 100 and the “Plant response rating, Waterhemp” value ([10]; 31 g ai/ha, scale 0 to 100) was 100. For the same molecule, the “Plant response rating, Waterhemp” value ([10]; 62 g ai/ha, scale 0 to 100) was 100, the “Plant response rating, Ryegrass, Italian” value ([11]; 125 g ai/ha, scale of 0 to 100) was 25 and the “Plant response rating, Ryegrass, Italian” value ([11]; 31 g ai/ha, scale 0 to 100) was 0. The “Plant response rating, Ryegrass, Italian” value ([11]; 62 g ai/ha, scale 0 to 100) was 5, the “Plant response rating, Corn” value (corn (Zea mays) [12]; 62 g ai/ha, scale of 0 to 100) was 5 and the “Plant response rating, Corn” value (corn (Zea mays) [12]; 125 g ai/ha, scale of 0 to 100) was 20. For the same molecule, the “Plant response rating, Corn” value (corn (Zea mays) [12]; 16 g ai/ha, scale 0 to 100) was 0, the “Plant response rating, Corn” value (corn (Zea mays) [12]; 31 g ai/ha, scale 0 to 100) was 5 and the “Plant response rating, Oilseed Rape” value ([13]; 125 g ai/ha, scale of 0 to 100) was 100. For the same molecule, the “Plant response rating, Oilseed Rape” value ([13]; 31 g ai/ha, scale 0 to 100) was 80, the “Plant response rating, Oilseed Rape” value ([13]; 62 g ai/ha, scale 0 to 100) was 70 and the “Plant response rating, Crabgrass, Large” value ([14]; 62 g ai/ha, scale of 0 to 100) was 100. For the same molecule, the “Plant response rating, Crabgrass, Large” value ([14]; 125 g ai/ha, scale of 0 to 100) was 98, the “Plant response rating, Crabgrass, Large” value ([14]; 16 g ai/ha, scale 0 to 100) was 55 and the “Plant response rating, Crabgrass, Large” value ([14]; 31 g ai/ha, scale 0 to 100) was 80. For the same molecule, the “Plant response rating, Blackgrass” value ([15]; 62 g ai/ha, scale of 0 to 100) was 70, the “Plant response rating, Blackgrass” value ([15]; 125 g ai/ha, scale of 0 to 100) was 90 and the “Plant response rating, Blackgrass” value ([15]; 16 g ai/ha, scale 0 to 100) was 5. The “Plant response rating, Blackgrass” value ([15]; 31 g ai/ha, scale 0 to 100) was 10, the “Plant response rating, Wheat” value ([16]; 125 g ai/ha, scale of 0 to 100) was 15 and the “Plant response rating, Wheat” value ([16]; 31 g ai/ha, scale 0 to 100) was 0. For the same molecule, the “Plant response rating, Wheat” value ([16]; 62 g ai/ha, scale 0 to 100) was 0, the “Plant response rating, Nutsedge, Yellow” value ([17]; 125 g ai/ha, scale of 0 to 100) was 35 and the “Plant response rating, Nutsedge, Yellow” value ([17]; 31 g ai/ha, scale 0 to 100) was 0. The “Plant response rating, Nutsedge, Yellow” value ([17]; 62 g ai/ha, scale 0 to 100) was 0, the “Plant response rating, Velvetleaf” value ([18]; 125 g ai/ha, scale of 0 to 100) was 100 and the “Plant response rating, Velvetleaf” value ([18]; 31 g ai/ha, scale 0 to 100) was 55. The “Plant response rating, Velvetleaf” value ([18]; 62 g ai/ha, scale 0 to 100) was 70, the “Plant response rating, Lambsquarters” value ([19]; 125 g ai/ha, scale of 0 to 100) was 98 and the “Plant response rating, Lambsquarters” value ([19]; 31 g ai/ha, scale 0 to 100) was 70. For the same molecule, the “Plant response rating, Lambsquarters” value ([19]; 62 g ai/ha, scale 0 to 100) was 95, the “Plant response rating, Morningglory” value ([20]; 125 g ai/ha, scale of 0 to 100) was 75 and the “Plant response rating, Morningglory” value ([20]; 31 g ai/ha, scale 0 to 100) was 20. The “Plant response rating, Morningglory” value ([20]; 62 g ai/ha, scale 0 to 100) was 40.
